In the supplement of paper PMC11208160:

Assay: recombinant UMI read abundance after kanamycin selection (control-corrected) (log10(CPM+1)); higher = more efficient recombination; extreme values may be limits of the assay; sequences stand for … in AGTGCAGAGAAAATCGGCCAGTTTTCTCTGCCTGCAGTCCGCATGCCGTGGGACCCCTTGGGTTCTAACCTGTTGCCTAGATTTATGCAGCGGACTGCCTTTCTCCCAAAGTGATAAACCGG…AGGTTGGTTTCACT; site = the 11-nt donor
Procedure, shortened: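 Pooled Escherichia coli screen of donor and donor-binding-loop pairs for the IS621 bridge recombinase. Each pair sits with a 12-nt UMI on a plasmid carrying a promoterless kanamycin gene. The library was co-electroporated with a target plasmid encoding a fixed target and T7-inducible recombinase, then plated with IPTG (0.07 mM) plus kanamycin, or unselected, each in two replicates. Recombinant UMIs were PCR-amplified across the donor–target junction and sequenced. Counts became CPM, averaged over replicates, scaled by control-derived factors and reported as log10(CPM+1).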
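Wherever recombinant UMI read abundance after kanamycin selection (control-corrected) is given: IS621 bridge recombinase in Escherichia coli cells against a fixed T5 target plasmid.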
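Wherever recombinant barcode read abundance after kanamycin selection (control-corrected) is given: IS621 recombinase and bridge RNA in Escherichia coli cells.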

Row | Sequence | recombinant UMI read abundance (log10)
1 | TTTGCGGCATGGACCGGTTTTCCCGGTAATCCGTATTTGCT (site TCTGCGGCTAG) | 0
2 | TTTGCGGCATGGACCGGTTTTCCCGGTAATCCGTATTTGCT (site TGTGCGGCTAG) | 0.0128
3 | TTTGCGGCATGGACCGGTTTTCCCGGTAATCCGTATTTGCT (site TTAGCGGCTAG) | 0.486
4 | TTTGCGGCATGGACCGGTTTTCCCGGTAATCCGTATTTGCT (site TTCGCGGCTAG) | 0
5 | TTTGCGGCATGGACCGGTTTTCCCGGTAATCCGTATTTGCT (site TTGGCGGCTAG) | 0.0258
6 | TTTGCGGCATGGACCGGTTTTCCCGGTAATCCGTATTTGCT (site TTTACGGCTAG) | 0.658
7 | TTTGCGGCATGGACCGGTTTTCCCGGTAATCCGTATTTGCT (site TTTCCGGCTAG) | 0.0114
8 | TTTGCGGCATGGACCGGTTTTCCCGGTAATCCGTATTTGCT (site TTTGAGGCTAG) | 0.00621
9 | TTTGCGGCATGGACCGGTTTTCCCGGTAATCCGTATTTGCT (site TTTGCAGCTAG) | 0.0183
10 | TTTGCGGCATGGACCGGTTTTCCCGGTAATCCGTATTTGCT (site TTTGCCGCTAG) | 0.00324
11 | TTTGCGGCATGGACCGGTTTTCCCGGTAATCCGTATTTGCT (site TTTGCGACTAG) | 0
12 | TTTGCGGCATGGACCGGTTTTCCCGGTAATCCGTATTTGCT (site TTTGCGCCTAG) | 0.00251
13 | TTTGCGGCATGGACCGGTTTTCCCGGTAATCCGTATTTGCT (site TTTGCGGCTAA) | 0.0285
14 | TTTGCGGCATGGACCGGTTTTCCCGGTAATCCGTATTTGCT (site TTTGCGGCTAC) | 0.0071
15 | TTTGCGGCATGGACCGGTTTTCCCGGTAATCCGTATTTGCT (site TTTGCGGCTAG) | 0.75
16 | TTTGCGGCATGGACCGGTTTTCCCGGTAATCCGTATTTGCT (site TTTGCGGCTAT) | 0.0119

Row | Sequence | recombinant UMI read abundance (log10)
17 | TTTGCGGCATGGACCGGTTTTCCCGGTAATCCGTATTTGCT (site TTTGCGGCTCG) | 0.0133
18 | TTTGCGGCATGGACCGGTTTTCCCGGTAATCCGTATTTGCT (site TTTGCGGCTGG) | 0
19 | TTTGCGGCATGGACCGGTTTTCCCGGTAATCCGTATTTGCT (site TTTGCGGCTTG) | 0.00988
20 | TTTGCGGCATGGACCGGTTTTCCCGGTAATCCGTATTTGCT (site TTTGCGTCTAG) | 0.00651
21 | TTTGCGGCATGGACCGGTTTTCCCGGTAATCCGTATTTGCT (site TTTGCTGCTAG) | 0
22 | TTTGCGGCATGGACCGGTTTTCCCGGTAATCCGTATTTGCT (site TTTGGGGCTAG) | 0.00746
23 | TTTGCGGCATGGACCGGTTTTCCCGGTAATCCGTATTTGCT (site TTTGTGGCTAG) | 0.00957
24 | TTTGCGGCATGGACCGGTTTTCCCGGTAATCCGTATTTGCT (site TTTTCGGCTAG) | 0.00374
25 | TTTGGCACATGGACCGGTTTTCCCGGTAATCCGTATTTGGC (site TTTGGCACTGC) | 0.00668
26 | TTTGGGGCATGGACCGGTTTTCCCGGTAATCCGTATTTGCT (site TTTGAGGCTAG) | 0.621
27 | TTTGGGGCATGGACCGGTTTTCCCGGTAATCCGTATTTGCT (site TTTGCGGCTAG) | 0.00428
28 | TTTGGGGCATGGACCGGTTTTCCCGGTAATCCGTATTTGCT (site TTTGGGGCTAG) | 1.61
29 | TTTGGGGCATGGACCGGTTTTCCCGGTAATCCGTATTTGCT (site TTTGTGGCTAG) | 0.0107
30 | TTTGTAGCATGGACCGGTTTTCCCGGTAATCCGTATTTGGA (site TTTGTAGCTTC) | 0.00646
31 | TTTGTGTCATGGACCGGTTTTCCCGGTAATCCGTATTTGCG (site TTTGTGTCTCG) | 0.535
32 | TTTGTTTCATGGACCGGTTTTCCCGGTAATCCGTATTTGTT (site TTTGTTTCTAA) | 0

Assay: recombinant barcode read abundance after kanamycin selection (control-corrected) (log10(CPM+1)); higher = more efficient recombination; sequences stand for … in AGTGCAGAGAAAATCGGCCAGTTTTCTCTGCCTGCAGTCCGCATGCCGT…AGATTTATGCAGCGGACTGCCTTTCTCCCAAAGTGATAAACCGGACAGTATCATGGACCGGTTTTCCCGGTAATCCGTATTTGCAAGGTTGGTTTCACT; site = the 11-nt target
Protocol: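 Pooled E. coli target-specificity screen for the IS621 bridge recombinase. Each library plasmid pairs an 11-nt target (CT core) with a bridge RNA whose target-binding loop (9-nt LTG + 4-nt RTG) is reprogrammed; the rest of the 177-nt WT IS621 bridge RNA scaffold is fixed. The plasmid is co-electroporated with a WT donor plasmid; recombinase is induced with 0.1 mM IPTG and recombinants are selected on kanamycin. Recombinant barcodes are sequenced, converted to CPM, averaged over two biological replicates and corrected by the unselected control CPM. Molecule = full bridge RNA written as DNA: LTG = specificity nt 1-9, RTG = reverse complement of specificity nt 8-11, in the WT scaffold.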

Row | Sequence | recombinant barcode read abundance (log10)
33 | AAACCGCCTTGGGTTCTAACCTGTTGCCT (site AAACCGCCTAG) | 1.11
34 | AAACCGCCTTGGGTTCTAACCTGTTGCCT (site AAACGGCCTAG) | 0.163
35 | AAACGGCCTTGGGTTCTAACCTGTTGCCT (site AAACCGCCTAG) | 0.147
36 | AAACGGCCTTGGGTTCTAACCTGTTGCCT (site AAACGGCCTAG) | 0.522
37 | AAACGGTCTTGGGTTCTAACCTGTTGCTA (site AAACGGTCTTA) | 1.53
38 | AAACGGTCTTGGGTTCTAACCTGTTGCTA (site AAATGGTCTTA) | 0.131
39 | AAAGCTACTTGGGTTCTAACCTGTTGCCT (site AAAGCTACTAG) | 1.11
40 | AAAGCTACTTGGGTTCTAACCTGTTGCCT (site AAAGCTCCTAA) | 0.124
41 | AAAGGGGCTTGGGTTCTAACCTGTTGCCT (site AAAGGGGCTAG) | 2.2
42 | AAAGGGGCTTGGGTTCTAACCTGTTGCCT (site TTGCATTCTCA) | 0.155
43 | AAAGGGTCTTGGGTTCTAACCTGTTGCCT (site AAAGGGTCTAG) | 1.8
44 | AAAGGGTCTTGGGTTCTAACCTGTTGCCT (site ACAGGGTCTAG) | 0.327
45 | AAAGGGTCTTGGGTTCTAACCTGTTGCCT (site AGAGGGTCTAG) | 0.0828
46 | AAAGGGTCTTGGGTTCTAACCTGTTGCCT (site ATAGGGTCTAG) | 0.689
47 | AAAGGTCCTTGGGTTCTAACCTGTTGCAG (site AAAGGTCCTCT) | 2.69
48 | AAAGGTCCTTGGGTTCTAACCTGTTGCAG (site CTTTAGTCTTA) | 0.0927
49 | AAAGGTTCTTGGGTTCTAACCTGTTGCCT (site AAAGGTTCTAG) | 1.58
50 | AAAGGTTCTTGGGTTCTAACCTGTTGCCT (site ACAGGTTCTAG) | 0.0935
51 | AAAGGTTCTTGGGTTCTAACCTGTTGCCT (site AGAGGTTCTAG) | 0.0624
52 | AAAGGTTCTTGGGTTCTAACCTGTTGCCT (site ATAGGTTCTAG) | 0.126

Row | Sequence | recombinant barcode read abundance (log10)
53 | AAAGTACCTTGGGTTCTAACCTGTTGCCT (site AAAGTACCTAG) | 2
54 | AAAGTACCTTGGGTTCTAACCTGTTGCCT (site CAAGTACCTAG) | 0.741
55 | AAAGTACCTTGGGTTCTAACCTGTTGCCT (site GAAGTACCTAG) | 0.0449
56 | AAAGTACCTTGGGTTCTAACCTGTTGCCT (site TAAGTACCTAG) | 1.16
57 | AAAGTCCCTTGGGTTCTAACCTGTTGCCT (site AAAGTCCCTAG) | 1.03
58 | AAAGTCCCTTGGGTTCTAACCTGTTGCCT (site CAAGTCCCTAG) | 0.361
59 | AAAGTCCCTTGGGTTCTAACCTGTTGCCT (site GAAGTCCCTAG) | 0.218
60 | AAAGTCCCTTGGGTTCTAACCTGTTGCCT (site TAAGTCCCTAG) | 0.481
61 | AAATGGTCTTGGGTTCTAACCTGTTGCTA (site AAACGGTCTTA) | 0.814
62 | AAATGGTCTTGGGTTCTAACCTGTTGCTA (site AAATGGTCTTA) | 1.69
63 | AAATGTACTTGGGTTCTAACCTGTTGCCT (site AAATGTACTAG) | 1.04
64 | AAATGTACTTGGGTTCTAACCTGTTGCCT (site TGGGTCCCTTC) | 0.0555
65 | AACAATGCTTGGGTTCTAACCTGTTGCCT (site AACAATGCTAG) | 0.713
66 | AACAATGCTTGGGTTCTAACCTGTTGCCT (site AACACTGCTAG) | 0.33
67 | AACAATGCTTGGGTTCTAACCTGTTGCCT (site AACAGTGCTAG) | 0.207
68 | AACAATGCTTGGGTTCTAACCTGTTGCCT (site AACATTGCTAG) | 0.0444
69 | AACAGACCTTGGGTTCTAACCTGTTGCCT (site AACAGACCTAG) | 1.62
70 | AACAGACCTTGGGTTCTAACCTGTTGCCT (site CACAGACCTAG) | 0.116
71 | AACAGACCTTGGGTTCTAACCTGTTGCCT (site GACAGACCTAG) | 0.291
